Reference: the NIST ThermoML archive (doi:10.1016/j.jct.2015.05.006)
Numbers after ± are expanded uncertainties.

Legend:
[1] = 101.33 kPa, Liquid, Vibrating tube method
[2] = relative permittivity at various frequencies (dimensionless); settings: Liquid, Frequency=1 MHz, Parallel plate capacitor
[3] = relative permittivity at various frequencies (dimensionless); xn = mol fraction of the nth substance listed; settings: Liquid, Frequency=1 MHz, Parallel plate capacitor, x1 = 1
[4] = xn = mol fraction of the nth substance listed; settings: Liquid, Vibrating tube method, x1 = 1

Question: Which mass density ([1]; 288.15 K) does the source give for `CCCCCCCC` [octane] here?
Answer: 706.6 ± 1 kg/m3

Question: What about the mass density ([1]; 298.15 K) of the same molecule?
Answer: 698.58 ± 1 kg/m3

Question: And the mass density ([1]; 308.15 K)?
Answer: 690.48 ± 1 kg/m3

Question: And the relative permittivity ([2]; 288.15 K, 97.1 kPa)?
Answer: 1.97 ± 0.02

Question: And the relative permittivity ([2]; 298.15 K, 97.1 kPa)?
Answer: 1.96 ± 0.02

Question: What about the relative permittivity ([2]; 308.15 K, 97.1 kPa) of the same molecule?
Answer: 1.94 ± 0.02

Question: Which mass density ([1]; 288.15 K) does the source give for `C1CCCCC1` [cyclohexane] here?
Answer: 783.29 ± 1 kg/m3

Question: And the mass density ([1]; 298.15 K)?
Answer: 773.86 ± 1 kg/m3

Question: What about the mass density ([1]; 308.15 K) of the same molecule?
Answer: 764.38 ± 1 kg/m3

Question: What about the relative permittivity ([2]; 288.15 K, 96.6 kPa) of the same molecule?
Answer: 2.04 ± 0.02

Question: And the relative permittivity ([2]; 298.15 K, 96.6 kPa)?
Answer: 2.03 ± 0.02

Question: What about the relative permittivity ([2]; 308.15 K, 96.6 kPa) of the same molecule?
Answer: 2.02 ± 0.02

Question: For `COCCOC` [1,2-dimethoxyethane], which mass density ([1]; 288.15 K) is on record?
Answer: 872.06 ± 1 kg/m3

Question: What about the mass density ([1]; 298.15 K) of the same molecule?
Answer: 861.17 ± 1 kg/m3

Question: What about the mass density ([1]; 308.15 K) of the same molecule?
Answer: 850.13 ± 1 kg/m3

Question: What about the relative permittivity ([2]; 288.15 K, 96.5 kPa) of the same molecule?
Answer: 7.41 ± 0.07

Question: And the relative permittivity ([2]; 298.15 K, 96.5 kPa)?
Answer: 7.07 ± 0.07

Question: What about the relative permittivity ([2]; 308.15 K, 96.5 kPa) of the same molecule?
Answer: 6.75 ± 0.07

Question: With `CCCCCCCC` [octane] + COCCOC as the molecule, how does the relative permittivity ([3]; 288.15 K, 97.1 kPa) read?
Answer: 1.97 ± 0.02

Question: And the relative permittivity ([3]; 298.15 K, 97.1 kPa)?
Answer: 1.96 ± 0.02

Question: What about the relative permittivity ([3]; 308.15 K, 97.1 kPa) of the same molecule?
Answer: 1.94 ± 0.02

Question: What about the mass density ([4]; 288.15 K, 97.1 kPa) of the same molecule?
Answer: 706.6 ± 1 kg/m3

Question: And the mass density ([4]; 298.15 K, 97.1 kPa)?
Answer: 698.58 ± 1 kg/m3

Question: And the mass density ([4]; 308.15 K, 97.1 kPa)?
Answer: 690.48 ± 1 kg/m3

Question: What does the source list for `CCCCCC` [hexane]?
Answer: mass density ([1]; 288.15 K): 664.13 ± 1 kg/m3; mass density ([1]; 298.15 K): 655.14 ± 1 kg/m3; mass density ([1]; 308.15 K): 646.1 ± 1 kg/m3; relative permittivity ([2]; 288.15 K, 95.2 kPa): 1.91 ± 0.02; relative permittivity ([2]; 298.15 K, 95.2 kPa): 1.89 ± 0.02; relative permittivity ([2]; 308.15 K, 95.2 kPa): 1.88 ± 0.02

Question: Which mass density ([1]; 288.15 K) does the source give for `CCCCCCCCCCCC` [dodecane] here?
Answer: 752.44 ± 1 kg/m3

Question: And the mass density ([1]; 298.15 K)?
Answer: 745.29 ± 1 kg/m3

Question: And the mass density ([1]; 308.15 K)?
Answer: 737.93 ± 1 kg/m3

Question: And the relative permittivity ([2]; 288.15 K, 97 kPa)?
Answer: 2.04 ± 0.02

Question: And the relative permittivity ([2]; 298.15 K, 97 kPa)?
Answer: 2.02 ± 0.02

Question: And the relative permittivity ([2]; 308.15 K, 97 kPa)?
Answer: 2.01 ± 0.02

Question: With `CCCCCCCCCCCC` [dodecane] + COCCOC as the molecule, how does the relative permittivity ([3]; 288.15 K, 97 kPa) read?
Answer: 2.04 ± 0.02

Question: What about the relative permittivity ([3]; 298.15 K, 97 kPa) of the same molecule?
Answer: 2.02 ± 0.02

Question: What about the relative permittivity ([3]; 308.15 K, 97 kPa) of the same molecule?
Answer: 2.01 ± 0.02

Question: And the mass density ([4]; 288.15 K, 97 kPa)?
Answer: 752.44 ± 1 kg/m3

Question: What about the mass density ([4]; 298.15 K, 97 kPa) of the same molecule?
Answer: 745.29 ± 1 kg/m3

Question: What about the mass density ([4]; 308.15 K, 97 kPa) of the same molecule?
Answer: 737.93 ± 1 kg/m3

Question: For `CCCCCC` [hexane] + COCCOC, which relative permittivity ([3]; 288.15 K, 95.2 kPa) is on record?
Answer: 1.91 ± 0.02

Question: What about the relative permittivity ([3]; 298.15 K, 95.2 kPa) of the same molecule?
Answer: 1.89 ± 0.02

Question: What about the relative permittivity ([3]; 308.15 K, 95.2 kPa) of the same molecule?
Answer: 1.88 ± 0.02

Question: And the mass density ([4]; 288.15 K, 95.2 kPa)?
Answer: 664.13 ± 1 kg/m3

Question: What about the mass density ([4]; 298.15 K, 95.2 kPa) of the same molecule?
Answer: 655.14 ± 1 kg/m3

Question: What about the mass density ([4]; 308.15 K, 95.2 kPa) of the same molecule?
Answer: 646.1 ± 1 kg/m3

Question: Which relative permittivity ([3]; 288.15 K, 96.6 kPa) does the source give for `C1CCCCC1` [cyclohexane] + COCCOC here?
Answer: 2.04 ± 0.02

Question: What about the relative permittivity ([3]; 298.15 K, 96.6 kPa) of the same molecule?
Answer: 2.03 ± 0.02

Question: And the relative permittivity ([3]; 308.15 K, 96.6 kPa)?
Answer: 2.02 ± 0.02

Question: What about the mass density ([4]; 288.15 K, 96.6 kPa) of the same molecule?
Answer: 783.29 ± 1 kg/m3

Question: What about the mass density ([4]; 298.15 K, 96.6 kPa) of the same molecule?
Answer: 773.86 ± 1 kg/m3

Question: And the mass density ([4]; 308.15 K, 96.6 kPa)?
Answer: 764.38 ± 1 kg/m3
